# Experimental data reported in patent US8399381B2, “Condensed heterocyclic sulfonyl urea compound, a herbicide containing the same, and a method for weed control using the same” (Sumitomo Chemical Company, Limited, priority 2002, dated 2013).
# Assays:
# [1] = test system: sulfonylurea herbicide-resistant Lindernia dubia subsp. major Pennell; assay: Paddy pot weeding test, flooded, two-leaf stage (Test Example 1); format: in vivo; details: 1 g/are, three weeks after treatment, resistant biotype, Kawanishi Town, Yamagata Pref.
# Text: (§1) A 5 cm×5 cm Jiffy Pot™ was charged with paddy soil, then water was introduced into each pot, seeds of sulfonylurea herbicide-sensitive Scirpus juncoides var. ohwianus, sulfonylurea herbicide-sensitive Lindernia procumbens (Krock.) Philcox, sulfonylurea herbicide-sensitive Lindernia dubia subsp. major Pennell, sulfonylurea herbicide-resistant Scirpus juncoides var. ohwianus, sulfonylurea herbicide-resistant Lindernia procumbens (Krock.) Philcox and sulfonylurea herbicide-resistant Lindernia dubia subsp. major Pennell were sowed therein and cultivated for a prescribed period under flooding conditions. When the plants reached the two-leave stage, the prescribed number of Jiffy Pots where the plants had been grown were transferred to a 150-cm^2 rectangular plastic pot, and water was introduced to a height of 3 cm, and a chemical diluent containing a compound was applied into the pot in an amount of 1 g/are. The chemical diluent was prepared by dissolving 1.5 g compound in 2 L of N,N-dimethylformamide (DMF) containing, 2% (W/V) surfactant Tween™ 20 and then diluting it with water to adjust the total volume to 10 L.
# [2] = test system: sulfonylurea herbicide-sensitive Scirpus juncoides var. ohwianus; assay: as above; format: in vivo; details: 1 g/are, three weeks after treatment, sensitive biotype, Kyoto Pref.
# Text: as §1
# [3] = test system: sulfonylurea herbicide-sensitive Lindernia procumbens (Krock.) Philcox; assay: as above; format: in vivo; details: 1 g/are, three weeks after treatment, sensitive biotype, Kyoto Pref.
# Text: as §1
# [4] = test system: sulfonylurea herbicide-sensitive Lindernia dubia subsp. major Pennell; assay: as above; format: in vivo; details: 1 g/are, three weeks after treatment, sensitive biotype, Makabe Town, Ibaraki Pref.
# Text: as §1
# [5] = test system: sulfonylurea herbicide-resistant Lindernia procumbens (Krock.) Philcox; assay: as above; format: in vivo; details: 1 g/are, three weeks after treatment, resistant biotype, Tajiri Town, Miyagi Pref.
# Text: as §1
# [6] = test system: sulfonylurea herbicide-resistant Scirpus juncoides var. ohwianus; assay: as above; format: in vivo; details: 1 g/are, three weeks after treatment, resistant biotype, Iwamisawa City, Hokkaido
# Text: as §1
SMILES,melting point,R Lindernia dubia subsp. major Pennell (effect index) [1],S Scirpus juncoides var. ohwianus (effect index) [2],S Lindernia procumbens (Krock.) Philcox (effect index) [3],S Lindernia dubia subsp. major Pennell (effect index) [4],R Lindernia procumbens (Krock.) Philcox (effect index) [5],R Scirpus juncoides var. ohwianus (effect index) [6]
CCNc1ccc2nc(Cl)c(NC(=O)NS(=O)(=O)c3nc(OC)cc(OC)n3)n2n1 [Compound No. 3],169 to 171 °C,5 (excellent 81 to 100),5 (excellent 81 to 100),5 (excellent 81 to 100),5 (excellent 81 to 100),5 (excellent 81 to 100),5 (excellent 81 to 100)
"CCSc1ccc2nc(CC)c(S(=O)(=O)NC(=O)Nc3nc(OC)cc(OC)n3)n2n1 [Compound No. 7, 1-(4,6-dimethoxypyrimidin-2-yl)-3-(2-ethyl-6-ethylthioimidazo[1,2-b]pyridazin-3-ylsulfonyl)urea]",160 to 165 °C (dec.),4 (high 61 to 80),5 (excellent 81 to 100),5 (excellent 81 to 100),5 (excellent 81 to 100),3 (moderate 41 to 60),5 (excellent 81 to 100)
CCc1nc2ccc(SC)nn2c1NC(=O)NS(=O)(=O)c1nc(OC)cc(OC)n1 [Compound No. 8],146 to 148 °C,5 (excellent 81 to 100),5 (excellent 81 to 100),5 (excellent 81 to 100),5 (excellent 81 to 100),5 (excellent 81 to 100),5 (excellent 81 to 100)
"CCc1ccc2nc(C)c(S(=O)(=O)NC(=O)Nc3nc(OC)cc(OC)n3)n2n1 [Compound No. 13, 1-(4,6-dimethoxypyrimidin-2-yl)-3-(6-ethyl-2-methylimidazo[1,2-b]pyridazin-3-ylsulfonyl)urea]",172 to 174 °C,5 (excellent 81 to 100),5 (excellent 81 to 100),5 (excellent 81 to 100),5 (excellent 81 to 100),5 (excellent 81 to 100),5 (excellent 81 to 100)
COc1cc(OC)nc(S(=O)(=O)NC(=O)Nc2c(C)nc3ccc(N(C)C)nn23)n1 [Compound No. 14],183 to 185 °C (dec.),4 (high 61 to 80),5 (excellent 81 to 100),5 (excellent 81 to 100),5 (excellent 81 to 100),3 (moderate 41 to 60),5 (excellent 81 to 100)
CCSc1ccc2nc(C)c(NC(=O)NS(=O)(=O)c3nc(OC)cc(OC)n3)n2n1 [Compound No. 18],163 to 165 °C,5 (excellent 81 to 100),5 (excellent 81 to 100),5 (excellent 81 to 100),5 (excellent 81 to 100),5 (excellent 81 to 100),5 (excellent 81 to 100)
COc1cc(OC)nc(S(=O)(=O)NC(=O)Nc2c(C)nc3ccc(SC)nn23)n1 [Compound No. 19],178 to 180 °C (dec.),4 (high 61 to 80),5 (excellent 81 to 100),5 (excellent 81 to 100),5 (excellent 81 to 100),5 (excellent 81 to 100),5 (excellent 81 to 100)
COc1cc(OC)nc(S(=O)(=O)NC(=O)Nc2c(S(C)(=O)=O)nn3ccsc23)n1 [Compound No. 35],190 to 201 °C,5 (excellent 81 to 100),5 (excellent 81 to 100),5 (excellent 81 to 100),5 (excellent 81 to 100),3 (moderate 41 to 60),5 (excellent 81 to 100)
CCc1ccc2nc(Cl)c(NC(=O)NS(=O)(=O)c3nc(OC)cc(OC)n3)n2n1 [Compound No. 37],162 to 166 °C,5 (excellent 81 to 100),5 (excellent 81 to 100),5 (excellent 81 to 100),5 (excellent 81 to 100),5 (excellent 81 to 100),5 (excellent 81 to 100)
"COc1cc(OC)nc(NC(=O)NS(=O)(=O)c2c(Cl)nc3cccnn23)n1 [comparison 2, reference compound]",–,0 (none 0),5 (excellent 81 to 100),5 (excellent 81 to 100),5 (excellent 81 to 100),0 (none 0),0 (none 0)

# The next lines start with results.
melting point,SMILES,R Lindernia dubia subsp. major Pennell (effect index) [1],S Scirpus juncoides var. ohwianus (effect index) [2],S Lindernia procumbens (Krock.) Philcox (effect index) [3],S Lindernia dubia subsp. major Pennell (effect index) [4],R Lindernia procumbens (Krock.) Philcox (effect index) [5],R Scirpus juncoides var. ohwianus (effect index) [6]
174 to 176 °C,CCc1nc2ccc(N(C)C)nn2c1NC(=O)NS(=O)(=O)c1nc(OC)cc(OC)n1 [Compound No. 4],5 (excellent 81 to 100),5 (excellent 81 to 100),5 (excellent 81 to 100),5 (excellent 81 to 100),3 (moderate 41 to 60),5 (excellent 81 to 100)
206 to 208 °C,CCc1nc2ccc(S(C)(=O)=O)nn2c1NC(=O)NS(=O)(=O)c1nc(OC)cc(OC)n1 [Compound No. 9],5 (excellent 81 to 100),5 (excellent 81 to 100),5 (excellent 81 to 100),5 (excellent 81 to 100),3 (moderate 41 to 60),5 (excellent 81 to 100)
266 to 267 °C,COc1cc(OC)nc(S(=O)(=O)NC(=O)Nc2c(C(F)(F)F)nc3ccc(SC)nn23)n1 [Compound No. 12],5 (excellent 81 to 100),5 (excellent 81 to 100),5 (excellent 81 to 100),5 (excellent 81 to 100),3 (moderate 41 to 60),5 (excellent 81 to 100)
168 to 170 °C (dec.),CCOc1ccc2nc(C)c(NC(=O)NS(=O)(=O)c3nc(OC)cc(OC)n3)n2n1 [Compound No. 16],5 (excellent 81 to 100),5 (excellent 81 to 100),5 (excellent 81 to 100),5 (excellent 81 to 100),4 (high 61 to 80),5 (excellent 81 to 100)
163 to 165 °C,COc1cc(OC)nc(S(=O)(=O)NC(=O)Nc2c(Cl)nc3ccc(SC)nn23)n1 [Compound No. 26],4 (high 61 to 80),5 (excellent 81 to 100),5 (excellent 81 to 100),5 (excellent 81 to 100),3 (moderate 41 to 60),5 (excellent 81 to 100)
